From patent US10835456B2, “Propyl gallate-containing vitamin preparations” (BASF SE, priority 2016, dated 2020)
“And” between values parts separate entries of the source, which are not always exact repeats. Equal entries are not always repeated. Values belong to the compound of their own block, whether it stands above or below them.

Columns and labels:
Type in all cases: physicochemical
[1] = Stress test: stability in premix mixture, stored at 40° C. and 70% humidity for 4 weeks, retention of vitamin content; conditions: for Retention Active ingredient content after 4-week premix test: Table 3b
Description: The stress test for the vitamins is configured such that specimens of 100 mg in each case of the formulation produced and 4 g of premix mixture are weighed into glass vessels. The premix mixture consists of 50% by weight of fine lime (particle size <1000 μm), 20% by weight of wheat bran (particle size <1000 μm), 20% by weight of 50% silica-supported choline chloride (particle size <1000 μm) and 10% by weight of trace element mixture (particle size 100-500 μm). The trace element mixture is composed of 46.78% by weight of FeSO4x7H2O (100-500 μm), 37.43% by weight of CuSO4x5H2O (100-500 μm), 11.79% by weight of ZnO (<500 μm), 3.61% by weight of MnO and 0.39% by weight of CoCO3. After addition of all ingredients, the specimens are mixed cautiously, with performance of the mixing mechanically or else by hand, and these specimens (A) are stored in a climate-controlled chamber at 40° C. and 70% humidity for 4 weeks. […]
For this purpose, specimens each of 100 mg of the formulation produced and 4 g of premix mixture are weighed out in glass vessels (50 mL glass vials). The premix mixture consists of 50% by weight of fine lime (particle size <1000 μm), 20% by weight of wheat bran (particle size <1000 μm), 20% by weight of 50% silica-supported choline chloride (particle size <1000 μm) and 10% by weight of trace element mixture (particle size 100-500 μm), said trace element mixture consisting of 46.78% by weight of FeSO4x7H2O (100-500 μm), 37.43% by weight of CuSO4x5H2O (100-500 μm), 11.79% by weight of ZnO (<500 μm), 3.61% by weight of MnO and 0.39% by weight of CoCO3. After addition of all ingredients, the specimens are mixed cautiously, where the mixing can be performed mechanically or else by hand, and these specimens (A) are stored in a climate-controlled chamber at 40° C. and 70% humidity for 4 weeks. An identical test is conducted with a comparative sample (B) which is of identical composition but which comprises, rather than propyl gallate, the same amount of ethoxyquin. […] The ratio of the contents after (A2), (B2) and before the storage (A1) and (B1) are used here to calculate the retention (A2/A1) or (B2/B1) of the samples. For the formulations of the invention, a quotient (A2/A1):(B2/B1) of at least 0.75 is determined here. Preferably, for the formulations of the invention, a quotient of at least 1 is obtained.
The stability of the particles thus produced was tested in a stress test. For this purpose, specimens each of 100 mg of the particles produced and 4 g of premix mixture were weighed into 50 mL glass bottles. The premix mixture consisted of 50% by weight of fine lime (particle size <1000 μm), 20% by weight of wheat bran (particle size <1000 μm), 20% by weight of 50% silica-supported choline chloride (particle size <1000 μm) and 10% by weight of trace element mixture (particle size 100-500 μm), and the trace element mixture of 46.78% by weight of FeSO4x7H2O (100-500 μm), 37.43% by weight of CuSO4x5H2O (100-500 μm), 11.79% by weight of ZnO (<500 μm), 3.61% by weight of MnO and 0.39% by weight of CoCO3. After addition of all ingredients, the specimens were carefully mixed by hand. These specimens were stored in a climate-controlled chamber at 40° C. and 70% air humidity for 4 weeks. […]

[2] = Particle size after dissolution in water by photon correlation spectroscopy (Malvern Zetasizer Nano ZSP); conditions: PCS; for particle size / polydispersity index PDI: dry powder with propyl gallate added to the dispersion (Examples 1, 3b, 3c, 3d)
Description: The particle size is determined by means of a Malvern Zetasizer Nano ZSP.
30 g of citranaxanthin were suspended in 240 g of isopropanol together with 1.1 g of ascorbyl palmitate and, with setting of the pressure-limiting valve to 30 bar, mixed continuously with 390 g of isopropanol in a mixing chamber A. At a metering rate of 6 L/h on the suspension side and of 9 L/h on the solvent side, a mixing temperature of 170° C. was established in the mixing chamber A. After a residence time of 0.3 second, the molecularly disperse solution was mixed in mixing chamber B with a solution of 32 g of gelatin, 71.4 g of sucrose and 50 g of glucose syrup in 4000 g of water at a throughput rate of 100 L/h. After the solvent had been removed under reduced pressure in a distillation apparatus, an active ingredient dispersion was obtained, to which 8 g of sunflower oil and 8 g of propyl gallate were added. The propyl gallate was predissolved here in 200 mL of water and adjusted to pH 7 with NaOH. Subsequently, the dispersion was converted to a stable, water-soluble dry powder by spray drying. After dissolution in water, by photon correlation spectroscopy (PCS), a particle size of 386 nm (standard deviation 142.5, polydispersity index PDI 0.185, D(95): 660 nm) was measured (Malvern Zetasizer Nano ZSP).

[3] = as above; conditions: PCS
[4] = Table 4b, D,L-α tocopherol 4% by wt. (in active ingredient phase) + propyl gallate 4% by wt. (in protective colloid phase)
[5] = Table 4b, mixed tocopherol 4% by wt. (in active ingredient phase) + propyl gallate 4% by wt. (in protective colloid phase)
[6] = dry powder with 4% by weight of propyl gallate and 4% by weight of butylhydroxytoluene
[7] = dry powder with 4% by weight of propyl gallate and 4% by weight of mixed tocopherol

Retention Active ingredient content after 4-week premix test ([1]; propyl gallate 4%, dispersion): 61.2%
Retention Active ingredient content after 4-week premix test ([1]; propyl gallate 6%, dispersion): 77.9%
Retention Active ingredient content after 4-week premix test ([1]; propyl gallate 8%, dispersion): 83.3%
Retention Active ingredient content after 4-week premix test ([1]; propyl gallate 9%, dispersion): 82.4%
Retention Active ingredient content after 4-week premix test ([1]; propyl gallate 10%, dispersion): 69.8%
Retention Active ingredient content after 4-week premix test ([1]; propyl gallate 12%, dispersion): 47.2%
Retention Active ingredient content after 4-week test ([1]; Table 4a, D,L-α tocopherol 4% by wt., active ingredient phase): 45.7%
Retention Active ingredient content after 4-week test ([1]; Table 4a, mixed tocopherol 4% by wt., active ingredient phase): 48.7%
Retention Active ingredient content after 4-week test [1, 4]: 57.2%
Retention Active ingredient content after 4-week test [1, 5]: 78.1%
Retention Canthaxanthin after 4-week test ([1]; Table 5a, propyl gallate 0% by wt., mixed tocopherol 4% by wt.): 48.7%
Retention Canthaxanthin after 4-week test ([1]; Table 5a, propyl gallate 4% by wt., mixed tocopherol 0% by wt.): 61.2%
Retention Canthaxanthin after 4-week test ([1]; Table 5a, propyl gallate 4% by wt., mixed tocopherol 2% by wt.): 80.8%
Retention Canthaxanthin after 4-week test ([1]; Table 5a, propyl gallate 4% by wt., mixed tocopherol 4% by wt.): 80.3%
Retention Canthaxanthin after 4-week test ([1]; Table 5a, propyl gallate 6% by wt., mixed tocopherol 0% by wt.): 71.3%
Retention Canthaxanthin after 4-week test ([1]; Table 5a, propyl gallate 8% by wt., mixed tocopherol 0% by wt.): 83.3%
Retention Canthaxanthin after 4-week test ([1]; Table 5b, propyl gallate 4% by wt. (in protective colloid phase pH 7), mixed tocopherol 1% by wt. (in active ingredient phase)): 72.8%
Retention Canthaxanthin after 4-week test ([1]; Table 5b, propyl gallate 4% by wt. (in protective colloid phase pH 7), mixed tocopherol 2% by wt. (in active ingredient phase)): 76%
Retention Canthaxanthin after 4-week test ([1]; Table 5b, propyl gallate 4% by wt. (in protective colloid phase pH 7), mixed tocopherol 4% by wt. (in active ingredient phase)): 80.6%
D(95) ([2]; dry powder with propyl gallate added to the dispersion (Examples 1, 3b)): 594 nm
particle size [2]: 290 nm
polydispersity index PDI [2]: 0.193
Structure (SMILES): CC1=C(/C=C/C(C)=C/C=C/C(C)=C/C=C/C=C(C)/C=C/C=C(C)/C=C/C2=C(C)C(=O)CCC2(C)C)C(C)(C)CCC1=O [Canthaxanthin]

Retention Active ingredient content after 4-week test ([1]; Table 3a, propyl gallate 0% by wt., dispersion): 7.9%
Retention Active ingredient content after 4-week test ([1]; Table 3a, propyl gallate 2% by wt., dispersion): 20.2%
Retention Active ingredient content after 4-week test ([1]; Table 3a, propyl gallate 3% by wt., dispersion): 26.7%
Retention Active ingredient content after 4-week test ([1]; Table 3a, propyl gallate 4% by wt., dispersion): 47.8%
Retention Active ingredient content after 4-week test ([1]; Table 3a, propyl gallate 5% by wt., dispersion): 45.7%
Retention Active ingredient content after 4-week test ([1]; Table 3a, propyl gallate 6% by wt., dispersion): 45.9%
Retention Active ingredient content after 4-week test ([1]; Table 3a, propyl gallate 7% by wt., dispersion): 49.5%
Retention Active ingredient content after 4-week test ([1]; Table 3a, propyl gallate 8% by wt., dispersion): 55.9%
Retention Active ingredient content after 4-week test ([1]; Table 3a, propyl gallate 8.5% by wt., dispersion): 51.9%
Retention Active ingredient content after 4-week test ([1]; Table 3a, propyl gallate 9% by wt., dispersion): 57.4%
Retention Active ingredient content after 4-week test ([1]; Table 3a, propyl gallate 10% by wt., dispersion): 19.6%
Retention Active ingredient content after 4-week test [1, 4]: 21.3%
Retention Active ingredient content after 4-week test [1, 5]: 67.5%
Retention Canthaxanthin after 4-week test ([1]; Table 5c, propyl gallate 0% by wt., mixed tocopherol 4% by wt.): 10.8%
Retention Canthaxanthin after 4-week test ([1]; Table 5c, propyl gallate 4% by wt., mixed tocopherol 0% by wt.): 39.1%
Retention Canthaxanthin after 4-week test ([1]; Table 5c, propyl gallate 4% by wt., mixed tocopherol 4% by wt.): 66.5%
Retention Canthaxanthin after 4-week test ([1]; Table 5d, 4% by wt. of ethoxyquin): 79.3%
Retention Canthaxanthin after 4-week test ([1]; Table 5d, propyl gallate 0% by wt., BHT 4% by wt.): 56.1% and 65.5% and 67.9%
Retention Canthaxanthin after 4-week test ([1]; Table 5d, propyl gallate 4% by wt., BHT 0% by wt.): 61.2%
Retention Canthaxanthin after 4-week test ([1]; Table 5d, propyl gallate 4% by wt., BHT 4% by wt.): 82.3%
Retention Active ingredient content after 4-week test ([1]; propyl gallate 4% by wt. added to dispersion in solid form without pre-dissolution): 47.2% and 44.9%
Retention Active ingredient content after 4-week test ([1]; propyl gallate 4% by wt. added to dispersion, dissolved in water pH 7): 46% and 49.4% and 47.8%
Retention (active constituent after 4 weeks in the test) ([1]; propyl gallate 4% by wt. added to dispersion, pH of sprayed dispersion 4.5): 42.2%
Retention (active constituent after 4 weeks in the test) ([1]; propyl gallate 4% by wt. added to dispersion, pH of sprayed dispersion 6): 39.1%
Retention (active constituent after 4 weeks in the test) ([1]; propyl gallate 4% by wt. added to dispersion, pH of sprayed dispersion 7): 47.8%
Retention (active constituent after 4 weeks in the test) ([1]; propyl gallate 4% by wt. added to dispersion, pH of sprayed dispersion 8): 49.4%
Retention (active constituent after 4 weeks in the test) ([1]; propyl gallate 4% by wt. added to dispersion, pH of sprayed dispersion 9): 28.2%
Retention (active constituent after 4 weeks in the test) ([1]; propyl gallate 4% by wt. added to dispersion, pH of sprayed dispersion 10): 36.4%
Retention (active constituent after 4 weeks in the test) ([1]; propyl gallate 4% by wt. added to dispersion, pH of sprayed dispersion 11): 14.7%
Retention Active ingredient content after 4-week test ([1]; propyl gallate 4% by wt. in colloid phase, pH of the colloid phase 8.5-9.5): 13.4%
Retention Active ingredient content after 4-week test ([1]; propyl gallate 4% by wt. in colloid phase, pH preadjustment to 7, then adjustment to pH 8.5 at maximum): 44.1%
particle size [3, 6]: 290 nm
polydispersity index PDI [3, 6]: 0.180
particle size [3, 7]: 280 nm
polydispersity index PDI [3, 7]: 0.185
Structure (SMILES): CC(=O)/C=C/C(C)=C/C=C/C(C)=C/C=C/C=C(C)/C=C/C=C(C)/C=C/C1=C(C)CCCC1(C)C [Citranaxanthin]

Retention Active ingredient content after 4-week test ([1]; Table 3d, ethoxyquin 4% by wt., dispersion): 22.2%
Retention Active ingredient content after 4-week test ([1]; Table 3d, propyl gallate 4% by wt., dispersion): 30.3%
particle size [2]: 262 nm
polydispersity index PDI [2]: 0.268
Structure (SMILES): CC1=C(/C=C/C(C)=C/C=C/C(C)=C/C=C/C=C(C)/C=C/C=C(C)/C=C/C2=C(C)CCCC2(C)C)C(C)(C)CCC1 [β-carotene]
